We go through three compounds from patent US9493795B2 (Algenol Biofuels Inc., priority 2013, dated 2016).

For assay [1], the system named is alcohol dehydrogenase from Chroococcidiopsis sp., wild type, SEQ ID NO: 9. The experiment in a line: Km determination of native Adh in cell extract (forward and back reaction), Chroococcidiopsis sp. SEQ ID NO: 9. As to conditions: 0.15 mM NADPH, pH 7.5, 30° C., read-out: Km(MeCHO). In kind it is biochemical. The protocol: (§1) Km values of ADH enzymes were determined herein by varying concentrations of one substrate only while keeping all other substrates at saturated levels. The kinetic parameters of the ADH enzymes were determined herein on cellular extracts, and not on pure enzyme. Km was determined herein using a nonlinear regression algorithm for the single-substrate version of the Michaelis-Menten model by using GraphPad Prism Software (version 5). The detailed description of the algorithm is available on the world wide web at “graphpad.com/guides/prism/6/curve-fitting/index.htm?reg_kcat.htm”.
(§2) As used herein, the Km value was measured according to the method described in Example 4. […] For the forward reaction measurement, 0.15 mM NADPH was added, and acetaldehyde was added in differing amounts ranging from […] to 50 mM. The NADPH oxidation was measured at a wavelength of 340 nm.
(§3) In the above aspects, the Km-values represent the Km-values of the native, i.e. non-recombinant, form of the alcohol dehydrogenase enzyme. A Km-value as used herein can be determined from the endogenously expressed alcohol dehydrogenase enzyme of a wild-type cyanobacterial cell. […]
(§4) The reaction was started by addition of varying amounts of acetaldehyde in final concentrations between 1 μM and 50 mM. The NADPH oxidation was spectrophotometrically monitored at a wavelength of 340 nm on a Shimadzu UV2450 spectrophotometer. […]

Assay [2] has as its system alcohol dehydrogenase from Synechococcus sp., wild type, SEQ ID NO: 4. The assay is described as follows: Km determination of native Adh in cell extract (forward and back reaction), Synechococcus sp. SEQ ID NO: 4. In kind it is biochemical. As to conditions: pH 7.5, 30° C. The protocol:
as §1, §2, §3, §4

In assay [3] the test system is alcohol dehydrogenase from Lyngbya sp., wild type, SEQ ID NO: 1. The experiment in a line: Km determination of native Adh in cell extract (forward and back reaction), Lyngbya sp. In kind it is biochemical. Particulars: pH 7.5, 30° C.
The test system of assay [4] is alcohol dehydrogenase from Synechococcus sp., wild type, SEQ ID NO: 6. The assay is described as follows: Km determination of native Adh in cell extract (forward and back reaction), Synechococcus sp. SEQ ID NO: 6. In kind it is biochemical. As to conditions: pH 7.5, 30° C. The protocol: as §1, §2, §3, §4
In assay [5] the test system is alcohol dehydrogenase from Arthronema africanum, wild type, SEQ ID NO: 8. The assay is described as follows: Km determination of native Adh in cell extract (forward and back reaction), Arthronema africanum. In kind it is biochemical. Particulars: 0.15 mM NADPH, pH 7.5, 30° C., read-out: Km(MeCHO).
The test system of assay [6] is alcohol dehydrogenase from Cyanothece sp., wild type, SEQ ID NO: 3. The assay is described as follows: Km determination of native Adh in cell extract (forward and back reaction), Cyanothece sp. It counts as biochemical. Particulars: pH 7.5, 30° C.
Assay [7] has as its system Adh from LPP. The assay is described as follows: Km determination in the screening, Adh from LPP. In kind it is biochemical. As to conditions: identified in the screening. The protocol:
as §1, §2, §3, §4

Assay [8] relates to alcohol dehydrogenase from Synechococcus sp., wild type, SEQ ID NO: 5. The experiment in a line: Km determination of native Adh in cell extract (forward and back reaction), Synechococcus sp. SEQ ID NO: 5. It counts as biochemical. Particulars: pH 7.5, 30° C. The protocol:
as §1, §2, §3, §4

For assay [9], the system named is alcohol dehydrogenase AdhA from Moorella sp. HUC22-1. Particulars: Inokuma et al., Arch Microbiol 188 (2007) 37-45, cited from earlier work.
[10] abbreviates: 0.15 mM NADPH, read-out: Km(MeCHO).
[11] abbreviates: back reaction, 0.15 mM NADP+, read-out: Km(EtOH).

Where two headings read alike, the source gives them in different places.

On to `CC=O` [acetaldehyde], for which the Km in assay [1] is 3730 µM; in assay [2] (setting [10]) it was 731 µM; in assay [3] (0.15 mM NADPH, cell extract, Example 13, read-out: Km value for acetaldehyde), 6 µM; in assay [3] (0.15 mM NADPH, cell extract, read-out: Km(MeCHO)), 5.8 µM; in assay [4] (setting [10]) it was 1130 µM; in [5], 3340 µM. The Km in assay [6] (setting [10]) was 75.6 µM; in assay [7] (read-out: Km for acetaldehyde) it was 120 µM; in assay [8] (setting [10]), 783 µM; in assay [9] (read-out: Km for acetaldehyde) it was 10000 µM.
For the compound `CCC=O` [propanal], the Km in [3] (as Example 4: 0.15 mM NADPH, FIG. 15A, read-out: Km for propanal) amounted to 5.3 µM.
Take `CCO` [ethanol]: the Km in assay [2] (setting [11]) stood at 32400 µM; in [3] (back reaction, 0.15 mM NADP+, cell extract, read-out: Km(EtOH)), 830 µM; in [4] (setting [11]) it was 29300 µM; in [6] (setting [11]), 9330 µM; in [7] (read-out: Km for ethanol) it was 3600 µM; in assay [8] (setting [11]), 67000 µM. Also, the Km in [9] (read-out: Km for ethanol) is 40000 µM.
